In patent US9738634B2, “Heterocyclic amide compound and herbicide” (SYNGENTA PARTICIPATIONS AG, priority 2013, dated 2017):

What was measured:
Format in all cases: in vivo
Details in all cases: treatment dosage 320 g/ha
fig-leafed goosefoot [1] = assay: Test Example 4: weedkilling efficacy by foliar treatment; M: fig-leafed goosefoot
In short: (§1)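 Seeds are spot-sown into sterilized diluvial soil and covered with about 1.5 cm of soil. After 14 days' greenhouse growth at 25 to 30° C, plants are sprayed on stems and leaves with diluted emulsion at the stated g/ha rate, then scored at 3 weeks.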

soybean [2] = assay: Test Example 4: foliar treatment, effect on crop; d: soybean
In short: as §1

wild oat [3] = assay: Test Example 3: weedkilling efficacy through soil treatment; G: wild oat
In short: (§2)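 Crop and weed responses were judged three weeks after a uniform surface spray of the water-diluted emulsion at the given g/ha rate. Seeds sat beneath about 1.5 cm of sterilized diluvial soil, and boxes stood in a greenhouse at 25 to 30° C.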

fig-leafed goosefoot [4] = assay: Test Example 3: weedkilling efficacy through soil treatment; M: fig-leafed goosefoot
In short: as §2

Indian mallow [5] = assay: Test Example 3: weedkilling efficacy through soil treatment; K: Indian mallow
In short: as §2

wheat [6] = assay: Test Example 4: foliar treatment, effect on crop; e: wheat
In short: as §1

Italian ryegrass [7] = assay: Test Example 3: weedkilling efficacy through soil treatment; I: Italian ryegrass
In short: as §2

black-grass [8] = assay: Test Example 3: weedkilling efficacy through soil treatment; H: black-grass
In short: as §2

rapeseed [9] = assay: Test Example 3: soil treatment, effect on crop; g: rapeseed
In short: as §2

green foxtail [10] = assay: Test Example 4: weedkilling efficacy by foliar treatment; E: green foxtail
In short: as §1

corn [11] = assay: Test Example 4: foliar treatment, effect on crop; c: corn
In short: as §1

transplanted rice = assay: Test Example 1: preemergent weed treatment in the submerged state, effect on crop; a: transplanted rice
In short: (§3)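 Visual scores against set criteria were taken 3 weeks after treatment. Compounds, as diluted emulsions at specified g/ha, went onto the water surface of 4 cm-flooded alluvial soil pots on the day weeds were sown and 2.5-leaf rice was transplanted; greenhouse held 25–30 °C.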

directly sown rice [12] = assay: Test Example 3: soil treatment, effect on crop; b: directly sown rice
In short: as §2

rapeseed [13] = assay: Test Example 4: foliar treatment, effect on crop; g: rapeseed
Protocol: (§4) Testing of Weedkilling Efficacy by Foliar Treatment
(§5) Sterilized diluvial soil was introduced into 21 cm long, 13 cm wide, 7 cm deep plastic boxes, and seeds of crabgrass, green foxtail, barnyard grass, wild oat, black-grass, Italian ryegrass, common wind-grass, Indian mallow, redroot pigweed, fig-leafed goosefoot, chickweed, catchweed, birds-eye speedwell, corn, soybean, rice, wheat, beet and rapeseed were each spot-sown, and covered with about 1.5 cm of soil, then the plants were grown in a greenhouse at 25 to 30° C.
(§6) After they had grown for 14 days, emulsions of compounds of the present invention prepared according to compounding example 2 were diluted with water to give the specified dosages, and applied uniformly onto the stem and leaf parts with a small sprayer. 3 weeks after the pesticide treatment the effect on each type of plant was investigated on the basis of the assessment criteria of test example 1.
(§7) A: barnyard grass, B: bulrush, C: oval-leafed pondweed, D: crabgrass, E: green foxtail, F: barnyard grass, G: wild oat, H: black-grass, I: Italian ryegrass, J: common wind-grass, K: Indian mallow, L: redroot pigweed, M: fig-leafed goosefoot, N: chickweed, O: catchweed, p: birds-eye speedwell, a: transplanted rice, b: directly sown rice, c: corn, d: soybean, e: wheat, f: beet, g: rapeseed
(§8) Further, pesticide dosage (g/ha) indicates the concentration regulated such that treatment was with only the stated number of grams (g), when calculated per hectare (ha).

common wind-grass [14] = assay: Test Example 3: weedkilling efficacy through soil treatment; J: common wind-grass
In short: as §2

wheat [15] = assay: Test Example 3: soil treatment, effect on crop; e: wheat
In short: as §2

chickweed [16] = assay: Test Example 3: weedkilling efficacy through soil treatment; N: chickweed
In short: as §2

soybean [17] = assay: Test Example 3: soil treatment, effect on crop; d: soybean
In short: as §2

bulrush [18] = assay: Test Example 1: weedkilling efficacy, preemergent weed treatment in the submerged state; B: bulrush
In short: as §3

crabgrass [19] = assay: Test Example 3: weedkilling efficacy through soil treatment; D: crabgrass
In short: as §2

bulrush [20] = assay: Test Example 2: weedkilling efficacy, growth period weed treatment in the submerged state; B: bulrush
In short: (§9)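 Barnyard grass, bulrush and oval-leafed pondweed sown in alluvial soil under 4 cm flooding, greenhouse 25 to 30° C. At 1-2 leaf stage, water-diluted emulsion applied to the water surface at stated g/ha dosages; effects scored 3 weeks later.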

directly sown rice [21] = assay: Test Example 4: foliar treatment, effect on crop; b: directly sown rice
In short: as §1

redroot pigweed [22] = assay: Test Example 4: weedkilling efficacy by foliar treatment; L: redroot pigweed
In short: as §1

barnyard grass [23] = assay: Test Example 3: weedkilling efficacy through soil treatment; F: barnyard grass
In short: as §2

chickweed [24] = assay: Test Example 4: weedkilling efficacy by foliar treatment; N: chickweed
In short: as §1

catchweed = assay: Test Example 4: weedkilling efficacy by foliar treatment; O: catchweed
In short: as §1

black-grass [25] = assay: Test Example 4: weedkilling efficacy by foliar treatment; H: black-grass
In short: as §1

wild oat [26] = assay: Test Example 4: weedkilling efficacy by foliar treatment; G: wild oat
In short: as §1

beet = assay: Test Example 4: foliar treatment, effect on crop; f: beet
In short: as §1

common wind-grass [27] = assay: Test Example 4: weedkilling efficacy by foliar treatment; J: common wind-grass
Protocol: as §4, §5, §6, §7, §8

oval-leafed pondweed [28] = assay: Test Example 2: weedkilling efficacy, growth period weed treatment in the submerged state; C: oval-leafed pondweed
In short: as §9

barnyard grass [29] = assay: Test Example 4: weedkilling efficacy by foliar treatment; F: barnyard grass
Protocol: as §4, §5, §6, §7, §8

corn [30] = assay: Test Example 3: soil treatment, effect on crop; c: corn
In short: as §2

oval-leafed pondweed [31] = assay: Test Example 1: weedkilling efficacy, preemergent weed treatment in the submerged state; C: oval-leafed pondweed
In short: as §3

barnyard grass [32] = assay: Test Example 1: weedkilling efficacy, preemergent weed treatment in the submerged state; A: barnyard grass
In short: as §3

barnyard grass [33] = assay: Test Example 2: weedkilling efficacy, growth period weed treatment in the submerged state; A: barnyard grass
In short: as §9

Indian mallow [34] = assay: Test Example 4: weedkilling efficacy by foliar treatment; K: Indian mallow
In short: as §1

Italian ryegrass [35] = assay: Test Example 4: weedkilling efficacy by foliar treatment; I: Italian ryegrass
In short: as §1

redroot pigweed [36] = assay: Test Example 3: weedkilling efficacy through soil treatment; L: redroot pigweed
In short: as §2

crabgrass [37] = assay: Test Example 4: weedkilling efficacy by foliar treatment; D: crabgrass
In short: as §1

green foxtail [38] = assay: Test Example 3: weedkilling efficacy through soil treatment; E: green foxtail
In short: as §2

Q: Which results are given for `CC1=C(c2cccnc2F)C(=O)N(C(C)(C)C(=O)Nc2cc(C(F)(F)F)cc(Cl)n2)CO1` [B-2-16]?
A: M (fig-leafed goosefoot) weedkilling efficacy grade (fig-leafed goosefoot [1]): 5 (weed kill ratio 90% or more, (practically complete withering)); d (soybean) effect on crop grade (soybean [2]): 4 (weed kill ratio 70% or more, less than 90%); G (wild oat) weedkilling efficacy grade (wild oat [3]): 5 (weed kill ratio 90% or more, (practically complete withering)); M (fig-leafed goosefoot) weedkilling efficacy grade (fig-leafed goosefoot [4]): 4 (weed kill ratio 70% or more, less than 90%); K (Indian mallow) weedkilling efficacy grade (Indian mallow [5]): 2 (weed kill ratio 20% or more, less than 40%); e (wheat) effect on crop grade (wheat [6]): 3 (weed kill ratio 40% or more, less than 70%); I (Italian ryegrass) weedkilling efficacy grade (Italian ryegrass [7]): 5 (weed kill ratio 90% or more, (practically complete withering)); H (black-grass) weedkilling efficacy grade (black-grass [8]): 5 (weed kill ratio 90% or more, (practically complete withering)); g (rapeseed) effect on crop grade (rapeseed [9]): 3 (weed kill ratio 40% or more, less than 70%); E (green foxtail) weedkilling efficacy grade (green foxtail [10]): 5 (weed kill ratio 90% or more, (practically complete withering)); c (corn) effect on crop grade (corn [11]): 4 (weed kill ratio 70% or more, less than 90%); a (transplanted rice) effect on crop grade (transplanted rice): 4 (weed kill ratio 70% or more, less than 90%); b (directly sown rice) effect on crop grade (directly sown rice [12]): 5 (weed kill ratio 90% or more, (practically complete withering)); g (rapeseed) effect on crop grade (rapeseed [13]): 4 (weed kill ratio 70% or more, less than 90%); J (common wind-grass) weedkilling efficacy grade (common wind-grass [14]): 5 (weed kill ratio 90% or more, (practically complete withering)); e (wheat) effect on crop grade (wheat [15]): 1 (weed kill ratio 5% or more, less than 20%); N (chickweed) weedkilling efficacy grade (chickweed [16]): 4 (weed kill ratio 70% or more, less than 90%); d (soybean) effect on crop grade (soybean [17]): 1 (weed kill ratio 5% or more, less than 20%); B (bulrush) weedkilling efficacy grade (bulrush [18]): 5 (weed kill ratio 90% or more, (practically complete withering)); D (crabgrass) weedkilling efficacy grade (crabgrass [19]): 5 (weed kill ratio 90% or more, (practically complete withering)); B (bulrush) weedkilling efficacy grade (bulrush [20]): 5 (weed kill ratio 90% or more, (practically complete withering)); b (directly sown rice) effect on crop grade (directly sown rice [21]): 5 (weed kill ratio 90% or more, (practically complete withering)); L (redroot pigweed) weedkilling efficacy grade (redroot pigweed [22]): 4 (weed kill ratio 70% or more, less than 90%); F (barnyard grass) weedkilling efficacy grade (barnyard grass [23]): 5 (weed kill ratio 90% or more, (practically complete withering)); N (chickweed) weedkilling efficacy grade (chickweed [24]): 4 (weed kill ratio 70% or more, less than 90%); O (catchweed) weedkilling efficacy grade (catchweed): 4 (weed kill ratio 70% or more, less than 90%); H (black-grass) weedkilling efficacy grade (black-grass [25]): 5 (weed kill ratio 90% or more, (practically complete withering)); G (wild oat) weedkilling efficacy grade (wild oat [26]): 5 (weed kill ratio 90% or more, (practically complete withering)); f (beet) effect on crop grade (beet): 4 (weed kill ratio 70% or more, less than 90%); J (common wind-grass) weedkilling efficacy grade (common wind-grass [27]): 5 (weed kill ratio 90% or more, (practically complete withering)); C (oval-leafed pondweed) weedkilling efficacy grade (oval-leafed pondweed [28]): 5 (weed kill ratio 90% or more, (practically complete withering)); F (barnyard grass) weedkilling efficacy grade (barnyard grass [29]): 5 (weed kill ratio 90% or more, (practically complete withering)); c (corn) effect on crop grade (corn [30]): 1 (weed kill ratio 5% or more, less than 20%); C (oval-leafed pondweed) weedkilling efficacy grade (oval-leafed pondweed [31]): 5 (weed kill ratio 90% or more, (practically complete withering)); A (barnyard grass) weedkilling efficacy grade (barnyard grass [32]): 5 (weed kill ratio 90% or more, (practically complete withering)); A (barnyard grass) weedkilling efficacy grade (barnyard grass [33]): 5 (weed kill ratio 90% or more, (practically complete withering)); K (Indian mallow) weedkilling efficacy grade (Indian mallow [34]): 5 (weed kill ratio 90% or more, (practically complete withering)); I (Italian ryegrass) weedkilling efficacy grade (Italian ryegrass [35]): 5 (weed kill ratio 90% or more, (practically complete withering)); L (redroot pigweed) weedkilling efficacy grade (redroot pigweed [36]): 0 (weed kill ratio 5% or less (practically no effect)); D (crabgrass) weedkilling efficacy grade (crabgrass [37]): 5 (weed kill ratio 90% or more, (practically complete withering)); E (green foxtail) weedkilling efficacy grade (green foxtail [38]): 5 (weed kill ratio 90% or more, (practically complete withering))
